Reference: patent US20210108197A1, “SHRNA EXPRESSION CASSETTE, POLY[…] CARRYING SAME, AND APPLICATION THEREOF” (priority 2017, published 2021)

Key:
HBV [1] = assay: In vivo pharmacodynamic experiment, HBsAg in serum; parameters: species or system HBV transgenic BALB/c; settings: intravenous injection, LAM 150 mg/kg, ETV 3.2 mg/kg, intron2 3 × 10^10, intron5 1.5 × 10^11 vg/animal, relative, D 0 = 1
Description: (§1) Two drugs having two structures scAAV2/8-H1-shRNA2-intron2 and scAAV2/8-H1-shRNA2-intron5 were compared with the commercial drugs lamivudine and entecavir for evaluating in vivo efficacy. The administration mode was intravenous injection, and 14 days was a blood collection period. After separating serum samples, HBsAg and HBV DNA were detected. The grouping of animal experiments is shown as follows:
(§2) The experiment was conducted for total of […] (38 weeks). For the experimental method, see Example 2 “4. Expression and detection of target gene” The detection results are shown in FIG. 40 and Table 2-12 (BsAg detection), and FIG. 41 and Table 2-13 (BV DNA detection).

HBV [2] = assay: In vivo pharmacodynamic experiment, HBV DNA in serum; parameters: species or system HBV transgenic BALB/c; settings: intravenous injection, LAM 150 mg/kg, ETV 3.2 mg/kg, intron2 3 × 10^10, intron5 1.5 × 10^11 vg/animal, relative, D 0 = 1
Description: as §1, §2

Row | SMILES | HBsAg detection in serum, D 0 (HBV [1]) | HBsAg detection in serum, D 14 (HBV [1]) | HBsAg detection in serum, D 28 (HBV [1]) | HBsAg detection in serum, D 35 (HBV [1]) | HBsAg detection in serum, D 49 (HBV [1]) | HBsAg detection in serum, D 70 (HBV [1]) | HBsAg detection in serum, D 98 (HBV [1]) | HBsAg detection in serum, D 126 (HBV [1]) | HBsAg detection in serum, D 154 (HBV [1]) | HBsAg detection in serum, D 182 (HBV [1]) | HBsAg detection in serum, D 210 (HBV [1]) | HBsAg detection in serum, D 238 (HBV [1]) | HBsAg detection in serum, D 266 (HBV [1]) | HBV DNA detection in serum, D 0 (HBV [2]) | HBV DNA detection in serum, D 14 (HBV [2]) | HBV DNA detection in serum, D 28 (HBV [2]) | HBV DNA detection in serum, D 35 (HBV [2]) | HBV DNA detection in serum, D 49 (HBV [2]) | HBV DNA detection in serum, D 70 (HBV [2]) | HBV DNA detection in serum, D 98 (HBV [2]) | other results
1 | C=C1[C@H](CO)[C@@H](O)C[C@@H]1n1cnc2c(=O)[nH]c(N)nc21 [ETV, Entecavir] | 1 | 1.51 | 1.55 | 1.8 | 1.4 | 1.33 | 1.34 | 1.48 | 0.75 | 0.81 | 1.57 | 0.83 | 0.94 | 1 | 8.68 | 1.24 | 1.08 | 1.25 | 3.93 | 1.05 | HBV DNA detection in serum, D 126 (HBV [2]): 0.72; HBV DNA detection in serum, D 154 (HBV [2]): 1.06; HBV DNA detection in serum, D 182 (HBV [2]): 3.33; HBV DNA detection in serum, D 210 (HBV [2]): 5.5; HBV DNA detection in serum, D 238 (HBV [2]): 2.96; HBV DNA detection in serum, D 266 (HBV [2]): 1.55
2 | Nc1ccn([C@@H]2CS[C@H](CO)O2)c(=O)n1 [LAM, Lamivudine] | 1 | 0.98 | 0.96 | 1.23 | 1.21 | 1.01 | 1.19 | 1.46 | 0.66 | 0.76 | 1.16 | 0.5 | 0.54 | 1 | 0.69 | 0.87 | 0.72 | 0.68 | 1.26 | 0.41 | HBV DNA detection in serum, D 126 (HBV [2]): 0.24; HBV DNA detection in serum, D 154 (HBV [2]): 0.56; HBV DNA detection in serum, D 182 (HBV [2]): 0.8; HBV DNA detection in serum, D 210 (HBV [2]): 0.28; HBV DNA detection in serum, D 238 (HBV [2]): 0.26; HBV DNA detection in serum, D 266 (HBV [2]): 0.07
